Where two headings read alike, the source gives them in different places.
Assays:
[1] = test system: Blumeria graminis f. sp. tritici (Erysiphe graminis f. sp. tritici); assay: Blumeria graminis f. sp. tritici / wheat / leaf disc preventative (powdery mildew on wheat); assay type: in vivo; conditions: foliar, wheat leaf segments cv. Kanzler, inoculated 1 day after application, assessed 6-8 days after application, read-out: inhibit fungal infestation (percent disease control compared to untreated)
Procedure: (§1) Leaf disks of various plant species (diameter 14 mm) are cut from plants grown in the greenhouse. The cut leaf disks are placed in multiwell plates (24-well format) onto water agar. Immediately after cutting the leaf disks are sprayed with a test solution.
(§2) Compounds to be tested are prepared as DMSO solutions (max. 10 mg/ml). Just before spraying the solutions are diluted to the appropriate concentrations with 0.025% Tween20. After drying, the leaf disks are inoculated with a spore suspension of the appropriate pathogenic fungus.
(§3) After an incubation time of 3-7 days after inoculation at defined conditions (temp, rH, light, etc.) according to the respective test system, the activity of the test compound is assessed as antifungal activity.
Wheat leaf segments cv. Kanzler are placed on agar in a multiwell plate (24-well format) and sprayed with the formulated test compound diluted in water. The leaf disks are inoculated by shaking powdery mildew infected plants above the test plates 1 day after application. The inoculated leaf disks are incubated at 20° C. and 60% rh under a light regime of 24 h darkness followed by 12 h light/12 h darkness in a climate chamber and the activity of a compound is assessed as percent disease control compared to untreated when an appropriate level of disease damage appears on untreated check leaf segments (6-8 days after application).

Phytophthora infestans = assay: whole plant or invertebrate; assay type: in vivo; conditions: in Solanum lycopersicum, foliar, read-out: inhibit fungal infestation (percent disease control compared to untreated)
Plasmopara viticola = Plasmopara viticola / grape / leaf disc preventative; assay type: in vivo; conditions: foliar, grape vine leaf disks, inoculated 1 day after application, assessed 6-8 days after application, read-out: inhibit fungal infestation (percent disease control compared to untreated)
Procedure: as §1, §2, §3
Grape vine leaf disks are placed on water agar in multiwell plates (24-well format) and sprayed with the formulated test compound diluted in water. The leaf disks are inoculated with a spore suspension of the fungus 1 day after application. The inoculated leaf disks are incubated at 19° C. and 80% rh under a light regime of 12 h light/12 h darkness in a climate cabinet and the activity of a compound is assessed as percent disease control compared to untreated when an appropriate level of disease damage appears in untreated check leaf disks (6-8 days after application).

Pythium ultimum = Pythium ultimum / liquid culture (seedling damping off); assay type: cell-based; conditions: Globisporangium ultimum, liquid culture in PDB, 24° C., 2-3 days after application, read-out: inhibit fungal infestation (inhibition of growth determined photometrically)
Procedure: Mycelia fragments or conidia suspensions of a fungus, prepared either freshly from liquid cultures of the fungus or from cryogenic storage, are directly mixed into nutrient broth. DMSO solutions of the test compound (max. 10 mg/ml) is diluted with 0.025% Tween20 by factor 50 and 10 μl of this solution is pipetted into a microtiter plate (96-well format) and the nutrient broth containing the fungal spores/mycelia fragments is then added to give an end concentration of the tested compound. The test plates are incubated at 24° C. and 96% rH in the dark. The inhibition of fungal growth is determined photometrically after 2-6 days and antifungal activity is calculated.
Mycelia fragments and oospores of a newly grown liquid culture of the fungus are directly mixed into nutrient broth (PDB potato dextrose broth). After placing a (DMSO) solution of test compound into a microtiter plate (96-well format), the nutrient broth containing the fungal mycelia/spore mixture is added. The test plates are incubated at 24° C. and the inhibition of growth is determined photometrically 2-3 days after application.

| Structure (SMILES) | inhibition at 200 ppm [1] | inhibition at 200 ppm (Phytophthora infestans) | inhibition at 200 ppm (Plasmopara viticola) | inhibition at 200 ppm (Pythium ultimum) | melting point | inhibition at 200 ppm ([1]; in Triticum aestivum) |
| --- | --- | --- | --- | --- | --- | --- |
| CC#CC(C)(C)NC(=O)C(Oc1ccc2ncc(CC)cc2c1)SC (stereo not shown) [Compound 13, N-(1,1-Dimethyl-but-2-ynyl)-2-(3-ethyl-quinolin-6-yloxy)-2-methylsulfanyl-acetamide] | ≥ 80% | ≥ 80% | ≥ 80% | ≥ 80% | 133 to 134 °C |  |
| CC#CC(C)(C)NC(=O)C(Oc1ccc2ncc(C)cc2c1)SC (stereo not shown) [Compound 3, N-(1,1-Dimethyl-but-2-ynyl)-2-(3-methyl-quinolin-6-yloxy)-2-methylsulfanyl-acetamide] | ≥ 80% | ≥ 80% | ≥ 80% | ≥ 80% | 128 to 129 °C |  |
| C=Cc1cnc2c(Cl)cc(OC(OC)C(=O)NC(C)C)cc2c1 (stereo not shown) [Compound 40, 2-(8-Chloro-3-vinyl-quinolin-6-yloxy)-N-iso-propyl-2-methoxy-acetamide] | ≥ 80% |  |  |  | 108 to 112 °C |  |
| CCc1cnc2c(Cl)cc(OC(SC)C(=O)NC3(C)CCC3)cc2c1 (stereo not shown) [Compound 28, 2-(8-Chloro-3-ethyl-quinolin-6-yloxy)-N-(1-methyl-cyclobutyl)-2-methylsulfanyl-acetamide] | ≥ 80% |  | ≥ 80% | ≥ 80% | 148 to 150 °C |  |
| COCC(C)(C#N)NC(=O)C(Oc1cc(C)c2ncc(C)cc2c1)SC (stereo not shown) [Compound 11, N-(1-Cyano-2-methoxy-1-methyl-ethyl)-2-(3,8-dimethyl-quinolin-6-yloxy)-2-methylsulfanyl-acetamide] | ≥ 80% |  |  | ≥ 80% | 115 to 117 °C |  |
| CCc1cnc2c(Cl)cc(OC(SC)C(=O)NC(C)(C)C#CCOC)cc2c1 (stereo not shown) [Compound 27, 2-(8-Chloro-3-ethyl-quinolin-6-yloxy)-N-(4-methoxy-1,1-dimethyl-but-2-ynyl)-2-methylsulfanyl-acetamide] | ≥ 80% | ≥ 80% | ≥ 80% |  | 139 to 142 °C |  |
| CCC(C)(C)NC(=O)C(Oc1ccc2ncc(C)cc2c1)SC (stereo not shown) [Compound 5, N-(1,1-Dimethyl-propyl)-2-(3-methyl-quinolin-6-yloxy)-2-methylsulfanyl-acetamide] |  | ≥ 80% |  | ≥ 80% | 103 to 104 °C |  |
| COCC#CC(C)(C)NC(=O)C(Oc1ccc2ncc(C)cc2c1)SC (stereo not shown) [Compound 4, N-(4-Methoxy-1,1-dimethyl-but-2-ynyl)-2-(3-methyl-quinolin-6-yloxy)-2-methylsulfanyl-acetamide] | ≥ 80% | ≥ 80% |  | ≥ 80% | 100 to 102 °C |  |
| CCc1cnc2ccc(OC(CC)C(=O)NC3(C)CCC3)cc2c1 (stereo not shown) [Compound 30, 2-(3-Ethyl-quinolin-6-yloxy)-N-(1-methyl-cyclobutyl)-butyramide] | ≥ 80% | ≥ 80% |  | ≥ 80% | 110 to 112 °C |  |
| CSC(Oc1cc(C)c2ncc(C)cc2c1)C(=O)NC(C)(C)C (stereo not shown) [Compound 6, N-tert-Butyl-2-(3,8-dimethyl-quinolin-6-yloxy)-2-methylsulfanyl-acetamide] | ≥ 80% | ≥ 80% | ≥ 80% | ≥ 80% | 126 to 127 °C |  |
| CC#CC(C)(C)NC(=O)C(Oc1cc(F)c2ncc(CC)cc2c1)SC (stereo not shown) [Compound 15, N-(1,1-Dimethyl-but-2-ynyl)-2-(3-ethyl-8-fluoro-quinolin-6-yloxy)-2-methylsulfanyl-acetamide] | ≥ 80% | ≥ 80% | ≥ 80% | ≥ 80% | 151 to 153 °C |  |
| CSC(Oc1ccc2ncc(C)cc2c1)C(=O)NC(C)(C)C (stereo not shown) [Compound 1, N-tert-Butyl-2-(3-methyl-quinolin-6-yloxy)-2-methylsulfanyl-acetamide] | ≥ 80% | ≥ 80% |  | ≥ 80% | 126 to 127 °C |  |
| CCc1cnc2c(C)cc(OC(SC)C(=O)NC3CCC3)cc2c1 (stereo not shown) [Compound 21, N-Cyclobutyl-2-(3-ethyl-8-methyl-quinolin-6-yloxy)-2-methylsulfanyl-acetamide] |  | ≥ 80% | ≥ 80% | ≥ 80% | 157 to 158 °C |  |
| CCc1cnc2ccc(OC(CC)C(=O)NC(C)(C)/C=N/OC)cc2c1 (stereo not shown) [Compound 31] |  | ≥ 80% |  | ≥ 80% | 125 to 127 °C | ≥ 80% |
| CCc1cnc2c(Cl)cc(OC(SC)C(=O)NC3CCC3)cc2c1 (stereo not shown) |  |  |  |  | 154 to 156 °C |  |
| CCc1cnc2ccc(OC(CC)C(=O)NC(C)(C#N)COC)cc2c1 (stereo not shown) [Compound 32, N-(1-Cyano-2-methoxy-1-methyl-ethyl)-2-(3-ethyl-quinolin-6-yloxy)-butyramide] | ≥ 80% |  |  |  | 114 to 117 °C |  |
| CCc1cnc2ccc(OC(CC)C(=O)NC(C)(C)C#CCOC)cc2c1 (stereo not shown) [Compound 29, 2-(3-Ethyl-quinolin-6-yloxy)-N-(4-methoxy-1,1-dimethyl-but-2-ynyl)-butyramide] | ≥ 80% | ≥ 80% |  | ≥ 80% | 99 to 101 °C |  |
| C=Cc1cnc2c(Cl)cc(OC(CC)C(=O)NC(C)(C)C)cc2c1 (stereo not shown) |  |  |  |  | 100 to 102 °C |  |
| CC#CC(C)(C)NC(=O)C(Oc1cc(C)c2ncc(CC)cc2c1)SC (stereo not shown) [Compound 19, N-(1,1-Dimethyl-but-2-ynyl)-2-(3-ethyl-8-methyl-quinolin-6-yloxy)-2-methylsulfanyl-acetamide] |  | ≥ 80% | ≥ 80% | ≥ 80% | 166 to 167 °C |  |
| CCc1cnc2c(C)cc(OC(SC)C(=O)NC3(C)CCC3)cc2c1 (stereo not shown) [Compound 22, 2-(3-Ethyl-8-methyl-quinolin-6-yloxy)-N-(1-methyl-cyclobutyl)-2-methylsulfanyl-acetamide] |  | ≥ 80% | ≥ 80% | ≥ 80% | 150 to 151 °C |  |
| CCc1cnc2c(C)cc(OC(SC)C(=O)NC(C)(C)C#CCOC)cc2c1 (stereo not shown) [Compound 20, 2-(3-Ethyl-8-methyl-quinolin-6-yloxy)-N-(4-methoxy-1,1-dimethyl-but-2-ynyl)-2-methylsulfanyl-acetamide] |  | ≥ 80% | ≥ 80% | ≥ 80% | 137 to 138 °C |  |
| C=Cc1cnc2c(F)cc(OC(SC)C(=O)NC(C)CC)cc2c1 (stereo not shown) [Compound 38, N-sec-Butyl-2-(8-fluoro-3-vinyl-quinolin-6-yloxy)-2-methylsulfanyl-acetamide] | ≥ 80% |  |  | ≥ 80% | 110 to 112 °C |  |
| CC#CC(C)(C)NC(=O)C(Oc1cc(Cl)c2ncc(CC)cc2c1)SC (stereo not shown) |  |  |  |  | 186 to 188 °C |  |
| C=Cc1cnc2ccc(OC(CC)C(=O)NC(C)(C#N)COC)cc2c1 (stereo not shown) [Compound 39, N-(1-Cyano-2-methoxy-1-methyl-ethyl)-2-(3-vinyl-quinolin-6-yloxy)-butyramide] | ≥ 80% |  |  | ≥ 80% | 120 to 125 °C |  |
| CCc1cnc2c(C)cc(OC(SC)C(=O)NC(C)(C)C)cc2c1 (stereo not shown) [Compound 17, N-tert-Butyl-2-(3-ethyl-8-methyl-quinolin-6-yloxy)-2-methylsulfanyl-acetamide] |  | ≥ 80% | ≥ 80% | ≥ 80% | 153 to 154 °C |  |
| C=Cc1cnc2c(Cl)cc(OC(SC)C(=O)NC(C)(C)C#N)cc2c1 (stereo not shown) |  |  |  |  | 138 to 141 °C |  |

Reference: US20130096156A1 (priority 2010, published 2013)
